The test system of assay [1] is patients with CP. To be noted: cited from earlier work.
In assay [2] the test system is patients with type B pain from chronic pancreatitis. The experiment in a line: Phase II dose-escalation trial: 10 point visual analogue scale (VAS) pain assessment. The class given is in vivo, human. Conditions: for mean pain score (VAS): all patients, baseline mean VAS 5.79; for Pain (VAS 0-10), mean: 100 min post dose, baseline 6.04.
Assay [3] shares this test system. The experiment in a line: Phase II dose-escalation trial: quality of life by SF-36 score. The class given is in vivo, human. To be noted: for mean SF-36 score: baseline 101.3.
Assay [4] has the same test system. Kind of assay: Phase II dose-escalation trial: daily opioid use converted to morphine equivalents. Format: in vivo, human. Conditions: for daily opioid usage (oral morphine equivalents): baseline 136 mg.
[5] abbreviates: 800 CU (160 mcg) twice daily for seven days, drug administration arm.

For “depot secretin: subcutaneous depot secretin, 800 CU (160 mcg) twice daily, Tympner and Rosch 1986”, in assay [1] (800 CU (160 mcg) twice daily for seven days), the serum amylase levels entry is “strong trend towards decreased”. In assay [1] (setting [5]), the lactoferrin entry is on record as “decreased”, the trypsin result was “decreased” and the “viscosity of pancreatic secretion” value is given as “decreased”. In addition, the “pain levels at the end of the study” value in assay [1] (800 CU (160 mcg) twice daily injection for seven days, p<0.05) was “significantly improved”.
For “sHS: ChiRhoStim (human secretin for injection) provided by ChiRhoClin Inc.; 27 amino acid gastrointestinal peptide hormone”, the “mean pain (VAS), female subgroup” value in assay [2] (day 30, females, baseline 5.42, p=0.07) amounted to 3.67. The “optimal dosing based on the change in the VAS score” value in assay [2] (dose-escalation 0.05-0.8 mcg/kg IV bolus) turned out to be 0.4 µg/kg. Also, the “mean pain score (VAS)” value in assay [2] (post-treatment day 4, p=0.25 vs baseline, IV bolus 3x/day for 3 days) stood at 4.80; in assay [2] (post-treatment day 10, p=0.19 vs baseline) it was 4.72; in assay [2] (post-treatment day 30, p=0.27 vs baseline), 4.90. Also, the “Pain (VAS 0-10), mean” value is 4.92 in assay [2] (sHS dose 0.05 μg/kg); 5.06 in assay [2] (sHS dose 0.1 μg/kg); 4.92 in assay [2] (sHS dose 0.2 μg/kg); 4.5 in assay [2] (sHS dose 0.4 μg/kg); 5.36 in assay [2] (sHS dose 0.8 μg/kg). For the same substance, the “mean SF-36 score” value is listed as 100.9 in assay [3] (day 4) and 101.5 in assay [3] (day 30). Besides, the “quality of life as measured by SF-36 with therapy” value in assay [3] (overall statement) is given as “unaltered”. Besides, in assay [4] (Day 30, females, baseline 107 mg, p=0.53), the “daily opioid equivalent, females” value is on record as 84 mg. Moreover, the “daily opioid usage (oral morphine equivalents)” value in assay [4] (day 4 post-therapy, p=0.52) was found to be 111 mg; in assay [4] (day 30 post-therapy, p=0.34), 104 mg.
